Measurements published in US20190161516A1, “PROTEASOME INHIBITORS” (University of Kentucky Research Foundation, priority 2017, published 2019).
Like-named read-outs stand apart in the source and are kept apart here.

Legend:
LMP2/β1i = LMP2/β1i (Homo sapiens, UniProt P28065+P40306); assay: Proteasome inhibitory activity, subunit-specific cell lysate IC50, LMP2; assay type: biochemical; design: Subunit-Specific Cell lysate IC50 (μM); endogenous in cells
[1] = test system: Chymotrypsin-like activity (β5/β5i); assay: Proteasome inhibitory activity, subunit-specific cell lysate IC50, chymotrypsin-like activity; assay type: biochemical
BV-2 cells = assay: LPS-induced IL-6 production in BV-2 microglial cell line; assay type: cell-based; conditions: FIG. 14
Excerpt: To test this, we used BV-2 cell line, a microglial cell line, known to upregulate cytokines in response to LPS treatment. […] We suspect these contradictory results are due to cell type-specific role of LMP2, indicating a distinct role of LMP2 in microglia inflammatory response.

[2] = test system: human peripheral blood mononuclear cells (PBMCs); conditions: previous studies; cited from earlier work
[3] = read-out: Subunit-Specific Cell lysate IC50, LMP2 (β1i)
[4] = Subunit-Specific Cell lysate IC50, LMP2 (β1i)

CC(C)C[C@H](NC(=O)[C@H](Cc1ccccc1)NC(=O)[C@@H]1CCCN1C(=O)CN1CCOCC1)C(=O)[C@@]1(C)CO1 [Analogue 1]
IC50 (LMP2/β1i; [3]): 1200 nM
IC50 [1]: > 10000 nM

CC(C)C[C@H](NC(=O)[C@H](Cc1ccccc1)NC(=O)[C@@H]1CCCN1C(=O)c1cccc(O)n1)C(=O)[C@@]1(C)CO1 [Analogue 2]
IC50 (LMP2/β1i; [3]): 1000 nM
IC50 [1]: > 10000 nM

CC(C)C[C@H](NC(=O)[C@H](Cc1ccccc1)NC(=O)[C@@H]1CCCN1C(=O)CN1CCOCC1=O)C(=O)[C@@]1(C)CO1 [Analogue 3]
IC50 (LMP2/β1i; [3]): 1000 nM
IC50 [1]: > 10000 nM

CC(=O)NCC(=O)N1CCC[C@H]1C(=O)N[C@@H](Cc1ccc(-c2ccccc2)cc1)C(=O)N[C@@H](CC(C)C)C(=O)[C@@]1(CO)CO1 [Analogue 4]
IC50 (LMP2/β1i; [3]): 650 nM
IC50 [1]: > 10000 nM

CC(=O)NCC(=O)N1CCC[C@H]1C(=O)N[C@@H](Cc1ccc2ccccc2c1)C(=O)N[C@@H](CC(C)C)C(=O)[C@@]1(CO[Si](c2ccccc2)(c2ccccc2)C(C)(C)C)CO1 [Analogue 5]
IC50 (LMP2/β1i; [4]): > 10000 nM
IC50 [1]: > 10000 nM

CC(=O)NCC(=O)N1CCC[C@H]1C(=O)N[C@@H](Cc1ccc2ccccc2c1)C(=O)N[C@@H](CC(C)C)C(=O)[C@@]1(CO)CO1 [Analogue 6]
IC50 (LMP2/β1i; [3]): 2200 nM
IC50 [1]: 7000 nM

CC(=O)NCC(=O)N1CCC[C@H]1C(=O)N[C@@H](Cc1ccc2ccccc2c1)C(=O)N[C@@H](CC(C)C)C(=O)[C@@]1(C)CO1 [Analogue 7]
IC50 (LMP2/β1i; [3]): 30 nM
IC50 [1]: > 10000 nM

CC(=O)NCC(=O)N1CCC[C@H]1C(=O)N[C@@H](Cc1ccc(-c2ccccc2)cc1)C(=O)N[C@@H](CC(C)C)C(=O)[C@@]1(C)CO1 [Analogue 8]
IC50 (LMP2/β1i; [3]): 20 nM
IC50 [1]: 5000 nM

CCc1ccc(C[C@H](NC(=O)[C@@H]2CCCN2C(=O)CNC(C)=O)C(=O)N[C@@H](CC(C)C)C(=O)[C@@]2(C)CO2)cc1 [Analogue 9]
IC50 (LMP2/β1i; [3]): 130 nM
IC50 [1]: > 10000 nM

CC(=O)NCC(=O)N1CCC[C@H]1C(=O)N[C@@H](Cc1cccc2ccccc12)C(=O)N[C@@H](CC(C)C)C(=O)[C@@]1(C)CO1 [Analogue 10]
IC50 (LMP2/β1i; [3]): 30 nM
IC50 [1]: > 10000 nM

CC(=O)NCC(=O)N1CCC[C@H]1C(=O)N[C@@H](Cc1ccccc1)C(=O)N[C@@H](CC(C)C)C(=O)[C@@]1(CO)CO1 [Analogue 11]
IC50 (LMP2/β1i; [3]): 60 nM
IC50 [1]: > 10000 nM

CC(=O)NCC(=O)N1CC(F)(F)C[C@H]1C(=O)N[C@@H](Cc1ccccc1)C(=O)N[C@@H](CC(C)C)C(=O)[C@@]1(C)CO1 [Analogue 12]
IC50 (LMP2/β1i; [3]): 70 nM
IC50 [1]: > 10000 nM

CC(=O)NCC(=O)N1CCC[C@H]1C(=O)N[C@@H](CCc1ccccc1)C(=O)N[C@@H](CC(C)C)C(=O)[C@@]1(C)CO1 [Analogue 13]
IC50 (LMP2/β1i; [3]): 60 nM
IC50 [1]: > 10000 nM

CC(=O)NCC(=O)N1CCCCC1C(=O)N[C@@H](Cc1ccccc1)C(=O)N[C@@H](CC(C)C)C(=O)[C@@]1(C)CO1 (stereo partly shown) [Analogue 14]
IC50 (LMP2/β1i; [3]): 120 nM
IC50 [1]: 1000 nM

Cc1ncc(C(=O)NCC(=O)N2CCC[C@H]2C(=O)N[C@@H](Cc2ccccc2)C(=O)N[C@@H](CC(C)C)C(=O)[C@@]2(C)CO2)s1 [Analogue 15]
IC50 (LMP2/β1i; [3]): 100 nM
IC50 [1]: > 10000 nM

CC(C)C[C@H](NC(=O)[C@H](Cc1ccccc1)NC(=O)[C@@H]1CCCN1C(=O)CNC(=O)c1cccc(O)n1)C(=O)[C@@]1(C)CO1 [Analogue 17]
IC50 (LMP2/β1i; [3]): 140 nM
IC50 [1]: > 10000 nM

CC(=O)NCC(=O)N1CCC[C@H]1C(=O)N[C@@H](Cc1ccc(NC(=O)c2ccccc2)cc1)C(=O)N[C@@H](CC(C)C)C(=O)[C@@]1(C)CO1 [Analogue 18]
IC50 (LMP2/β1i; [4]): 70 nM
IC50 [1]: 5000 nM

Cc1ncc(C(=O)NCC(=O)N2CCC[C@H]2C(=O)N[C@@H](CCc2ccccc2)C(=O)N[C@@H](CC(C)C)C(=O)[C@@]2(C)CO2)s1 [Analogue 19]
IC50 (LMP2/β1i; [3]): 180 nM
IC50 [1]: > 10000 nM

CC(C)C[C@H](NC(=O)[C@H](CCc1ccccc1)NC(=O)[C@@H]1CCCN1C(=O)CNC(=O)c1cnccn1)C(=O)[C@@]1(C)CO1 [Analogue 20]
IC50 (LMP2/β1i; [3]): 100 nM

Cc1cc(C(=O)NCC(=O)N2CCC[C@H]2C(=O)N[C@@H](CCc2ccccc2)C(=O)N[C@@H](CC(C)C)C(=O)[C@@]2(C)CO2)no1 [Analogue 21]
IC50 (LMP2/β1i; [3]): 130 nM
IC50 [1]: > 10000 nM

CC(C)C[C@H](NC(=O)[C@H](Cc1ccc(-c2ccccc2)cc1)NC(=O)[C@@H]1CCCN1C(=O)CNC(=O)c1cnccn1)C(=O)[C@@]1(C)CO1 [Analogue 22]
IC50 (LMP2/β1i; [3]): 90 nM
IC50 [1]: 5000 nM

CC(C)C[C@H](NC(=O)[C@H](Cc1ccc2ccccc2c1)NC(=O)[C@@H]1CCCN1C(=O)CNC(=O)c1cnccn1)C(=O)[C@@]1(C)CO1 [Analogue 23]
IC50 (LMP2/β1i; [3]): 60 nM

Cc1ncc(C(=O)NCC(=O)N2CCC[C@H]2C(=O)N[C@@H](Cc2ccc(-c3ccccc3)cc2)C(=O)N[C@@H](CC(C)C)C(=O)[C@@]2(C)CO2)s1 [Analogue 24]
IC50 (LMP2/β1i; [3]): 130 nM

CC(C)C[C@H](NC(=O)[C@H](Cc1ccccc1)NC(=O)[C@@H]1CCCN1C(=O)CNC(=O)C(F)(F)F)C(=O)[C@@]1(C)CO1 [Analogue 25]
IC50 (LMP2/β1i; [3]): 130 nM
IC50 [1]: > 10000 nM

Cc1ncc(C(=O)NCC(=O)N2CCC[C@H]2C(=O)N[C@@H](Cc2ccc3ccccc3c2)C(=O)N[C@@H](CC(C)C)C(=O)[C@@]2(C)CO2)s1 [Analogue 26]
IC50 (LMP2/β1i; [3]): 90 nM

CC(C)C[C@H](NC(=O)[C@H](Cc1ccccc1)NC(=O)[C@@H]1CCCN1C(=O)CNC(=O)S(C)(=O)=O)C(=O)[C@@]1(C)CO1 [Analogue 27]
IC50 (LMP2/β1i; [3]): 110 nM
IC50 [1]: > 10000 nM

CC(=O)NCC(=O)N1CCC[C@H]1C(=O)N[C@@H](Cc1ccc(NC(=O)c2cnccn2)cc1)C(=O)N[C@@H](CC(C)C)C(=O)[C@@]1(C)CO1 [Analogue 28]
IC50 (LMP2/β1i; [4]): 30 nM
IC50 [1]: > 10000 nM

CC(=O)NCC(=O)N1CCC[C@H]1C(=O)N[C@@H](Cc1ccc(NC(=O)CN2CCOCC2)cc1)C(=O)N[C@@H](CC(C)C)C(=O)[C@@]1(C)CO1 [Analogue 29]
IC50 (LMP2/β1i; [3]): 90 nM
IC50 [1]: > 10000 nM

CC(=O)NCC(=O)N1CCC[C@H]1C(=O)N[C@@H](Cc1ccncc1)C(=O)N[C@@H](CC(C)C)C(=O)[C@@]1(C)CO1 [Analogue 30]
IC50 (LMP2/β1i; [3]): 120 nM

COc1ccc(C[C@H](NC(=O)[C@H](C)NC(=O)CN2CCOCC2)C(=O)N[C@@H](Cc2ccccc2)C(=O)[C@@]2(C)CO2)cc1 [ONX-0914]
IL-6 production induced by LPS (BV-2 cells): less effective in blocking IL-6 production
LPS-induced cytokine production including IL-6 [2]: almost completely blocked
